# Key:
# [1] = target: phosphatidylserine synthase 1 (PSS1) (Homo sapiens, UniProt P48651); assay: cryo-EM structure at […] Å; type: biochemical
# [2] = target: phosphatidylserine synthase 1 (PSS1) (Homo sapiens, UniProt P48651, P269S); type: biochemical
smiles,measurement,setting,value
"CC(F)(F)CN1C(=O)c2[nH]nc(-c3cccc4[nH]c(=O)oc34)c2[C@@H]1c1ccc(Oc2cc(C(F)(F)F)cc(C(F)(F)F)c2)cc1 [DS, DS55980254]",IC50,[1],1650 nM
same,IC50,[2],1270 nM

# Reference: paper PMC11455612 (Cell, 2024)
